The values that follow come from article PMC5218480 (PLoS ONE, 2017).

The experiment relates to MV-4-11 cells. Put plainly: Gene expression microarray analysis (Affymetrix PrimeView) and GSEA. Type of experiment: cell-based, human. Also on record: RFU PODN (11730768_x_at) / Fold change /veh PODN (11730768_x_at) / RFU LINC00158 (11744669_a_at) / Fold change /veh LINC00158 (11744669_a_at) / RFU DUSP10 (11751237_a_at) / Fold change /veh DUSP10 (11751237_a_at) / RFU ID3 (11757404_x_at) / Fold change /veh ID3 (11757404_x_at) / RFU PLEKHG5 (11737974_s_at) / Fold change /veh PLEKHG5 (11737974_s_at) / RFU LRRC4B (11730491_at) / Fold change /veh LRRC4B (11730491_at) / RFU GIMAP4 (11747438_a_at) / Fold change /veh GIMAP4 (11747438_a_at) / RFU KRT8 (11758183_x_at) / Fold change /veh KRT8 (11758183_x_at) / RFU CNN1 (11734310_a_at) / Fold change /veh CNN1 (11734310_a_at) / RFU VPS37D (11726825_at) / Fold change /veh VPS37D (11726825_at) / RFU C10orf10 (11716522_x_at) / Fold change /veh C10orf10 (11716522_x_at) / RFU KIR2DL2 /// KIR2DL4 /// KIR2DL5A /// KIR2DL5B /// KIR2DS1 /// KIR2DS2 /// KIR2DS3 /// KIR2DS4 /// KIR3DL3 /// KIR3DL3 /// KIR3DS1 (11738374_at) / Fold change /veh KIR2DL2 /// KIR2DL4 /// KIR2DL5A /// KIR2DL5B /// KIR2DS1 /// KIR2DS2 /// KIR2DS3 /// KIR2DS4 /// KIR3DL3 /// KIR3DL3 /// KIR3DS1 (11738374_at) / RFU C1QL1 (11718748_at) / Fold change /veh C1QL1 (11718748_at) / RFU TMPRSS4 (11747572_a_at) / Fold change /veh TMPRSS4 (11747572_a_at) / RFU HAMP (11756126_x_at) / Fold change /veh HAMP (11756126_x_at) / RFU RNFT2 (11725882_a_at) / Fold change /veh RNFT2 (11725882_a_at) / RFU NR4A2 (11747474_a_at) / Fold change /veh NR4A2 (11747474_a_at) / RFU ABCC12 (11746883_a_at) / Fold change /veh ABCC12 (11746883_a_at) / RFU TMEM136 (11760407_x_at) / Fold change /veh TMEM136 (11760407_x_at) / RFU CLDN22 /// WWC2 (11732394_at) / Fold change /veh CLDN22 /// WWC2 (11732394_at) / RFU HLA-DPB1 (11760878_x_at) / Fold change /veh HLA-DPB1 (11760878_x_at) / RFU SPINT1 (11716480_a_at) / Fold change /veh SPINT1 (11716480_a_at) / RFU GAP43 (11754022_s_at) / Fold change /veh GAP43 (11754022_s_at) / RFU A4GNT (11735810_at) / Fold change /veh A4GNT (11735810_at) / RFU PRB3 (11715151_x_at) / Fold change /veh PRB3 (11715151_x_at) / RFU TUBB4B (11761932_at) / Fold change /veh TUBB4B (11761932_at) / RFU CAPN14 (11732068_a_at) / Fold change /veh CAPN14 (11732068_a_at) / RFU TMCC2 (11721928_a_at) / Fold change /veh TMCC2 (11721928_a_at) / RFU IRGQ (11745062_a_at) / Fold change /veh IRGQ (11745062_a_at) / RFU FAM174B (11720279_a_at) / Fold change /veh FAM174B (11720279_a_at) / RFU TMPRSS4 (11748680_a_at) / Fold change /veh TMPRSS4 (11748680_a_at) / RFU FAM212B (11763350_a_at) / Fold change /veh FAM212B (11763350_a_at) / RFU PLEKHG5 (11743358_a_at) / Fold change /veh PLEKHG5 (11743358_a_at) / RFU ZSCAN30 (11745921_a_at) / Fold change /veh ZSCAN30 (11745921_a_at) / RFU CMKLR1 (11741424_a_at) / Fold change /veh CMKLR1 (11741424_a_at) / RFU LOC101060620 /// MAPK8IP1 (11723275_at) / Fold change /veh LOC101060620 /// MAPK8IP1 (11723275_at) / RFU SPTSSB (11747773_x_at) / Fold change /veh SPTSSB (11747773_x_at) / RFU PRSS12 (11739890_at) / Fold change /veh PRSS12 (11739890_at) / RFU BIN1 (11741810_x_at) / Fold change /veh BIN1 (11741810_x_at) / RFU WNT11 (11732464_a_at) / Fold change /veh WNT11 (11732464_a_at) / RFU C10orf10 (11716521_a_at) / Fold change /veh C10orf10 (11716521_a_at) / RFU C5orf56 (11738089_at) / Fold change /veh C5orf56 (11738089_at) / RFU CYB561 (11721691_x_at) / Fold change /veh CYB561 (11721691_x_at) / RFU ANKRD19P (11752326_a_at) / Fold change /veh ANKRD19P (11752326_a_at) / RFU OR2T12 /// OR2T33 /// OR2T8 (11738714_s_at) / Fold change /veh OR2T12 /// OR2T33 /// OR2T8 (11738714_s_at) / RFU VCAN (11748164_a_at) / Fold change /veh VCAN (11748164_a_at) / RFU JSRP1 (11732532_at) / Fold change /veh JSRP1 (11732532_at) / RFU KRTAP10-11 (11738290_x_at) / Fold change /veh KRTAP10-11 (11738290_x_at) / RFU MYO3A (11730013_a_at) / Fold change /veh MYO3A (11730013_a_at) / RFU EBF3 (11725865_a_at) / Fold change /veh EBF3 (11725865_a_at) / RFU CAMK2N1 (11719241_x_at) / Fold change /veh CAMK2N1 (11719241_x_at) / RFU C5orf56 (11738088_a_at) / Fold change /veh C5orf56 (11738088_a_at) / RFU OLFML3 (11715873_a_at) / Fold change /veh OLFML3 (11715873_a_at) / RFU LOC100653217 /// NTM (11731650_a_at) / Fold change /veh LOC100653217 /// NTM (11731650_a_at) / RFU MAPK11 (11762145_a_at) / Fold change /veh MAPK11 (11762145_a_at) / RFU FIZ1 (11724087_x_at) / Fold change /veh FIZ1 (11724087_x_at) / RFU OASL (11726364_x_at) / Fold change /veh OASL (11726364_x_at) / RFU SOX15 (11748057_x_at) / Fold change /veh SOX15 (11748057_x_at) / RFU CD79A (11719716_a_at) / Fold change /veh CD79A (11719716_a_at) / RFU HIST1H1D (11736915_at) / Fold change /veh HIST1H1D (11736915_at) / RFU CASKIN2 (11723855_a_at) / Fold change /veh CASKIN2 (11723855_a_at) / RFU LOC730098 (11760151_x_at) / Fold change /veh LOC730098 (11760151_x_at) / RFU OR4N2 (11742367_at) / Fold change /veh OR4N2 (11742367_at) / RFU PRRT2 (11749266_a_at) / Fold change /veh PRRT2 (11749266_a_at) / RFU SNX32 (11753110_a_at) / Fold change /veh SNX32 (11753110_a_at) / RFU CDHR5 (11726645_a_at) / Fold change /veh CDHR5 (11726645_a_at) / RFU RCAN1 (11760418_a_at) / Fold change /veh RCAN1 (11760418_a_at) / RFU FAM167A (11723789_a_at) / Fold change /veh FAM167A (11723789_a_at) / RFU FAM26E (11764081_at) / Fold change /veh FAM26E (11764081_at) / RFU ISYNA1 (11749810_s_at) / Fold change /veh ISYNA1 (11749810_s_at) / RFU ACY1 (11761880_at) / Fold change /veh ACY1 (11761880_at) / RFU 11764098_at / Fold change /veh 11764098_at / RFU SAMD14 (11745864_x_at) / Fold change /veh SAMD14 (11745864_x_at) / RFU NPB (11741838_a_at) / Fold change /veh NPB (11741838_a_at) / RFU TMPRSS6 (11731388_a_at) / Fold change /veh TMPRSS6 (11731388_a_at) / RFU KRTAP10-2 (11738614_at) / Fold change /veh KRTAP10-2 (11738614_at) / RFU ARHGAP8 /// PRR5-ARHGAP8 (11727945_x_at) / Fold change /veh ARHGAP8 /// PRR5-ARHGAP8 (11727945_x_at) / RFU KRTAP5-7 /// NADSYN1 (11734609_at) / Fold change /veh KRTAP5-7 /// NADSYN1 (11734609_at) / RFU RASL12 (11751679_a_at) / Fold change /veh RASL12 (11751679_a_at) / RFU CDKN2B (11736163_a_at) / Fold change /veh CDKN2B (11736163_a_at) / RFU PRF1 (11729649_at) / Fold change /veh PRF1 (11729649_at) / RFU, ZNF638 /// ZNF638-IT1 / Fold change vs veh, ZNF638 /// ZNF638-IT1 / RFU, PANK3 / Fold change vs veh, PANK3 / RFU, SH3YL1 / Fold change vs veh, SH3YL1 / RFU, ZEB2 / Fold change vs veh, ZEB2 / RFU, NRIP1 / Fold change vs veh, NRIP1 / RFU, PTTG1IP / Fold change vs veh, PTTG1IP / RFU, CAPN2 / Fold change vs veh, CAPN2 / RFU, MED14 / Fold change vs veh, MED14 / RFU, SNORA58 / Fold change vs veh, SNORA58 / RFU, C1orf63 / Fold change vs veh, C1orf63 / RFU, LRRFIP1 / Fold change vs veh, LRRFIP1 / RFU, NDUFAF7 / Fold change vs veh, NDUFAF7 / RFU, SLC12A2 / Fold change vs veh, SLC12A2 / RFU, IBTK / Fold change vs veh, IBTK / RFU, ESF1 / Fold change vs veh, ESF1 / Fold change vs veh, TMEM50B / RFU, TAOK1 / Fold change vs veh, TAOK1 / RFU, ACBD3 / Fold change vs veh, ACBD3 / RFU, TMA16 / Fold change vs veh, TMA16 / RFU, RWDD3 / Fold change vs veh, RWDD3 / RFU, BCAT1 / Fold change vs veh, BCAT1 / RFU, EDEM3 / Fold change vs veh, EDEM3 / RFU, TMEM33 / Fold change vs veh, TMEM33 / RFU, WDR75 / Fold change vs veh, WDR75 / RFU, AHCTF1 / Fold change vs veh, AHCTF1 / RFU, TFRC / Fold change vs veh, TFRC / RFU, ZDHHC17 / Fold change vs veh, ZDHHC17 / RFU, NOM1 / Fold change vs veh, NOM1 / RFU, ARL8B / Fold change vs veh, ARL8B / RFU, ZBTB11 / Fold change vs veh, ZBTB11 / RFU, TAMM41 / Fold change vs veh, TAMM41 / RFU, KIAA1704 /// LOC100996395 / Fold change vs veh, KIAA1704 /// LOC100996395 / RFU, ING1 / Fold change vs veh, ING1 / RFU, TRMT61B / Fold change vs veh, TRMT61B / RFU, FUBP3 / Fold change vs veh, FUBP3 / RFU, TP53 / Fold change vs veh, TP53 / RFU, TNKS2 / Fold change vs veh, TNKS2 / RFU, ZFP14 / Fold change vs veh, ZFP14 / RFU, ACTR2 / Fold change vs veh, ACTR2 / RFU, PPP3R1 / Fold change vs veh, PPP3R1 / RFU, PIK3R1 / Fold change vs veh, PIK3R1 / RFU, HNRNPA1 / Fold change vs veh, HNRNPA1 / RFU, RNF170 / Fold change vs veh, RNF170 / RFU, ZNF28 / Fold change vs veh, ZNF28 / RFU, RNGTT / Fold change vs veh, RNGTT / RFU, OGT / Fold change vs veh, OGT / RFU, BRD1 / Fold change vs veh, BRD1 / RFU, MARS / Fold change vs veh, MARS / RFU, ZNF655 / Fold change vs veh, ZNF655 / RFU, FAHD1 / Fold change vs veh, FAHD1 / RFU, BDP1 / Fold change vs veh, BDP1 / RFU, LRRCC1 / Fold change vs veh, LRRCC1 / RFU, ARID1A / Fold change vs veh, ARID1A / RFU, ZNF146 / Fold change vs veh, ZNF146 / RFU, ZNF330 / Fold change vs veh, ZNF330 / RFU, GPN3 / Fold change vs veh, GPN3 / RFU, C9orf123 / Fold change vs veh, C9orf123 / RFU, N4BP2L2 / Fold change vs veh, N4BP2L2 / RFU, ARFIP1 / Fold change vs veh, ARFIP1 / RFU, FAM179B / Fold change vs veh, FAM179B / RFU, BCL10 / Fold change vs veh, BCL10 / RFU, UHRF1BP1L / Fold change vs veh, UHRF1BP1L / RFU, BET1 / Fold change vs veh, BET1 / RFU, CNOT2 / Fold change vs veh, CNOT2 / RFU, ZNF268 / Fold change vs veh, ZNF268 / Fold change vs veh, ZNF507 / RFU, DGCR2 / Fold change vs veh, DGCR2 / RFU, WDSUB1 / Fold change vs veh, WDSUB1 / Fold change vs veh, HSP90B1 /// MIR3652 / RFU, ADSS / Fold change vs veh, ADSS / RFU, GK / Fold change vs veh, GK / RFU, ZNF148 / Fold change vs veh, ZNF148 / RFU, TAF9 / Fold change vs veh, TAF9 / RFU, SLC1A5 / Fold change vs veh, SLC1A5 / RFU, SLMO2 / Fold change vs veh, SLMO2 / RFU, ABCC4 / Fold change vs veh, ABCC4 / RFU, LOC101060439 /// RAP1B / Fold change vs veh, LOC101060439 /// RAP1B / RFU, RFX7 / Fold change vs veh, RFX7 / RFU, GTPBP10 / Fold change vs veh, GTPBP10 / RFU, CNEP1R1 / Fold change vs veh, CNEP1R1 / RFU, BIVM-ERCC5 /// ERCC5 / Fold change vs veh, BIVM-ERCC5 /// ERCC5 / RFU, ILF3 / Fold change vs veh, ILF3 / RFU 11762660_at / Fold change /veh 11762660_at / RFU VCAN (11757783_s_at) / Fold change /veh VCAN (11757783_s_at) / RFU DDX43 (11728927_at) / Fold change /veh DDX43 (11728927_at) / RFU KRT8 (11758188_x_at) / Fold change /veh KRT8 (11758188_x_at) / RFU NKD1 (11759106_at) / Fold change /veh NKD1 (11759106_at) / RFU SRD5A1 (11742802_a_at) / Fold change /veh SRD5A1 (11742802_a_at) / RFU TPSAB1 /// TPSB2 (11721975_s_at) / Fold change /veh TPSAB1 /// TPSB2 (11721975_s_at) / RFU GSTM3 (11746129_a_at) / Fold change /veh GSTM3 (11746129_a_at) / RFU IL23R (11737362_x_at) / Fold change /veh IL23R (11737362_x_at) / RFU TMEM51 (11727254_a_at) / Fold change /veh TMEM51 (11727254_a_at) / RFU PIWIL2 (11732686_x_at) / Fold change /veh PIWIL2 (11732686_x_at) / RFU ORM1 (11744905_x_at) / Fold change /veh ORM1 (11744905_x_at) / RFU CCDC152 (11743942_at) / Fold change /veh CCDC152 (11743942_at) / RFU ECM1 (11717891_a_at) / Fold change /veh ECM1 (11717891_a_at) / RFU IL23R (11748794_a_at) / Fold change /veh IL23R (11748794_a_at) / RFU TNFAIP8L3 (11732012_x_at) / Fold change /veh TNFAIP8L3 (11732012_x_at) / RFU MBOAT4 (11741988_at) / Fold change /veh MBOAT4 (11741988_at) / RFU 11764193_at / Fold change /veh 11764193_at / RFU TMEM53 (11763286_at) / Fold change /veh TMEM53 (11763286_at) / RFU MAGEB2 (11727129_at) / Fold change /veh MAGEB2 (11727129_at) / RFU TMEM200A (11744735_a_at) / Fold change /veh TMEM200A (11744735_a_at) / RFU CCDC152 (11751479_a_at) / Fold change /veh CCDC152 (11751479_a_at) / RFU FAM211A (11726209_a_at) / Fold change /veh FAM211A (11726209_a_at) / RFU RGS16 (11746705_a_at) / Fold change /veh RGS16 (11746705_a_at) / RFU VCAN (11755009_s_at) / Fold change /veh VCAN (11755009_s_at) / RFU RHOB (11743442_s_at) / Fold change /veh RHOB (11743442_s_at) / RFU RGS16 (11720943_a_at) / Fold change /veh RGS16 (11720943_a_at) / RFU RGS16 (11720944_at) / Fold change /veh RGS16 (11720944_at) / RFU, VPS4B / Fold change vs veh, VPS4B / RFU, CREB1 / Fold change vs veh, CREB1 / RFU, DNAJC13 / Fold change vs veh, DNAJC13 / RFU, GNAQ / Fold change vs veh, GNAQ / RFU, CDK5R1 / Fold change vs veh, CDK5R1 / RFU, ZRANB3 / Fold change vs veh, ZRANB3 / RFU, CUL4A / Fold change vs veh, CUL4A / RFU, CCNY / Fold change vs veh, CCNY / RFU, UFL1 / Fold change vs veh, UFL1 / RFU, COG3 / Fold change vs veh, COG3 / RFU, DIAPH2 / Fold change vs veh, DIAPH2 / RFU, SKA2 / Fold change vs veh, SKA2 / RFU, AFF3 / Fold change vs veh, AFF3 / RFU, LMF1 / Fold change vs veh, LMF1 / RFU, IPO11 / Fold change vs veh, IPO11 / RFU, DFFB / Fold change vs veh, DFFB / RFU, FOXP1 / Fold change vs veh, FOXP1 / RFU, CARD8 / Fold change vs veh, CARD8 / RFU, STRN3 / Fold change vs veh, STRN3 / RFU, ADK / Fold change vs veh, ADK / RFU, RASSF2 / Fold change vs veh, RASSF2 / RFU, WIPF1 / Fold change vs veh, WIPF1 / RFU, LARP1B / Fold change vs veh, LARP1B / RFU, RASA1 / Fold change vs veh, RASA1 / RFU, RB1 / Fold change vs veh, RB1 / RFU, PPFIA1 / Fold change vs veh, PPFIA1 / RFU, MAT2A / Fold change vs veh, MAT2A / RFU, CCT5 / Fold change vs veh, CCT5 / RFU, WDR92 / Fold change vs veh, WDR92 / RFU, CUX1 / Fold change vs veh, CUX1 / RFU, TTC7A / Fold change vs veh, TTC7A / RFU, TMEM135 / Fold change vs veh, TMEM135 / RFU, DEPTOR / Fold change vs veh, DEPTOR / RFU, CPM / Fold change vs veh, CPM / RFU, DNAJB6 / Fold change vs veh, DNAJB6 / RFU, CACNA2D3 / Fold change vs veh, CACNA2D3 / RFU, DTX4 / Fold change vs veh, DTX4 / RFU, TFCP2 / Fold change vs veh, TFCP2 / RFU, GMCL1 /// GMCL1P1 / Fold change vs veh, GMCL1 /// GMCL1P1 / RFU, AEBP2 / Fold change vs veh, AEBP2 / RFU, SNHG1 /// SNORD22 /// SNORD25 /// SNORD26 /// SNORD27 /// SNORD28 /// SNORD29 /// SNORD31 / Fold change vs veh, SNHG1 /// SNORD22 /// SNORD25 /// SNORD26 /// SNORD27 /// SNORD28 /// SNORD29 /// SNORD31 / Fold change (Aza/veh), C12orf56 (ProbeSet 11735607_a_at) / Fold change (ACY-1035/veh), C12orf56 (ProbeSet 11735607_a_at) / Fold change (Aza/veh), FGFR1OP (ProbeSet 11751329_s_at) / Fold change (ACY-1035/veh), FGFR1OP (ProbeSet 11751329_s_at) / Fold change (Aza/veh), VPS36 (ProbeSet 11739960_a_at) / Fold change (ACY-1035/veh), VPS36 (ProbeSet 11739960_a_at) / RFU SYPL1 (11715823_x_at) / Fold change /veh SYPL1 (11715823_x_at) / RFU IGFBP7 (11715501_s_at) / Fold change /veh IGFBP7 (11715501_s_at) / RFU REEP3 (11722064_at) / Fold change /veh REEP3 (11722064_at) / RFU IGLL1 (11728026_x_at) / Fold change /veh IGLL1 (11728026_x_at): dose or concentration left out as unconfirmed. The note with it: ProbeSet 11723475_a_at; LIST B.

The structures appear in SMILES notation.

As to `Nc1ccc(-c2cccs2)cc1NC(=O)c1ccc2c(c1)cc(C1CC1)n2CCN1CCOCC1` [ACY-1035], the “RFU, TRMT61B” value came to 136.33 RFU.
